Assay results: US12528814B2, “Bifunctional degraders of interleukin-1 receptor-associated kinases and therapeutic use thereof” (NURIX THERAPEUTICS, INC., priority 2020, dated 2026)
Like-named read-outs stand apart in the source and are kept apart here.

Experiments:
IRAK4 [1] = target: T1, IRAK4 (Homo sapiens (Human), UniProt Q9NWZ3); assay: IRAK4 Degradation HiBiT Assay; details: HiBiT-tagged Jurkat cells, 4 hrs; for DC50: read-out: Cellular IRAK4 HiBiT: DC50; for Dmax: Jurkat
Target sequence in this assay (Q9NWZ3 whole entry): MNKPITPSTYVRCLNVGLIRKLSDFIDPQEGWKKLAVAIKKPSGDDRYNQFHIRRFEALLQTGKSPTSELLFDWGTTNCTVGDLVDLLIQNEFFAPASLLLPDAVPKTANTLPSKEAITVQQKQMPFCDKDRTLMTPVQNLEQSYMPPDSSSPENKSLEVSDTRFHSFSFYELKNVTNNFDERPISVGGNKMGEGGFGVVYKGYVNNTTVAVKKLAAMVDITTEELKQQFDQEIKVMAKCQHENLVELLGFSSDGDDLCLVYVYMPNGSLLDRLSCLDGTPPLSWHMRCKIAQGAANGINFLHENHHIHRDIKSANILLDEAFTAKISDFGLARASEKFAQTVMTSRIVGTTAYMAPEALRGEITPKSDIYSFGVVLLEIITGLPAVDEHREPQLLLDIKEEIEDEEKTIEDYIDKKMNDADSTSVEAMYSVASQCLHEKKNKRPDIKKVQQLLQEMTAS

IRAK4 [2] = target: T1, IRAK4; assay: IRAK4 Biochemical HTRF Kinase Assay; details: read-out: IRAK4 HTRF biochemical: IC50
Method: IRAK4 Biochemical HTRF Kinase Assay
The binding capacities of certain bifunctional compounds of Formula (I) were determined using the CisBio HTRF KinEASE STK S1 Kit (#62ST1PEB, contains 5× Kinase buffer, 1× Detection Buffer, anti-phospho-serine/threonine-cryptate, Streptavidin-XL665, and STK-S1), which measures the phosphorylation of a biotinylated peptide substrate by IRAK4, according to the manufacturer's protocol. […] 2 μl of a reaction solution containing 5 μM STK-S1, 10 mM ATP, and 10 mM MgCl2 were added to each well to a final volume of 10 μl. Assay controls include wells containing kinase with no compound (DMSO only) and wells containing no kinase and no compound (DMSO only). The reactions were allowed to proceed at ambient temperature for 90 minutes. […] The plates were incubated for 60 minutes at ambient temperature and then read on an Envision Multilabel Reader (PerkinElmer). […] For IC50 determination, the compounds were tested at sixteen concentrations in duplicate and curve-fitting was performed by non-linear regression analysis using GraphPad Priam.
Target sequence in this assay (Q9NWZ3 whole entry, species assumed): as the sequence (Q9NWZ3 whole entry) above

[3] = read-out: Cellular IRAK4 HiBiT: Dmax, Table 4
[4] = read-out: Cellular IRAK4 HiBiT: Dmax, Table 5, multiple runs

| SMILES | DC50 (IRAK4 [1]; Table 5, multiple runs) | IC50 (IRAK4 [2]; Table 5, multiple runs) | Dmax (IRAK4 [1]; [3]) | Dmax (IRAK4 [1]; [4]) | DC50 (IRAK4 [1]; Table 4) | IC50 (IRAK4 [2]; Table 4) |
| --- | --- | --- | --- | --- | --- | --- |
| CNc1cc(-c2ccc3cc(C#N)cnn23)ncc1-c1nnc(N2CCN(C(=O)C3CCN(c4cccc5c4C(=O)N(C4CCC(=O)NC4=O)C5=O)CC3)CC2)s1 (stereo not shown) [Example 89, 7-(5-(5-(4-(1-(2-(2,6-dioxopiperidin-3-yl)-1,3-dioxoisoindolin-4-yl)piperidine-4-carbonyl)piperazin-1-yl)-1,3,4-thiadiazol-2-yl)-4-(methylamino)pyridin-2-yl)pyrrolo[1,2-b]pyridazine-3-carbonitrile] | > 9980 nM | 0.9 nM | – | – | – | – |
| N#Cc1cnn2c(-c3cc(NC4CCOCC4)c(-c4nnc(C56CCC(NC(=O)CCOCCOCCOCCNc7cccc8c7C(=O)N(C7CCC(=O)NC7=O)C8=O)(CC5)CC6)s4)cn3)ccc2c1 (stereo not shown) [Example 2, N-(4-(5-(6-(3-cyanopyrrolo[1,2-b]pyridazin-7-yl)-4-((tetrahydro-2H-pyran-4-yl)amino)pyridin-3-yl)-1,3,4-thiadiazol-2-yl)bicyclo[2.2.2]octan-1-yl)-3-(2-(2-(2-((2-(2,6-dioxopiperidin-3-yl)-1,3-dioxoisoindolin-4-yl)amino)ethoxy)ethoxy)ethoxy)propanamide] | 27.2 nM | 1.8 nM | 71% | 75% | 27.8 nM | 1.6 nM |
| CC(C)Nc1cc(-c2ccc3cc(C#N)cnn23)ncc1-c1nnc(N2CCN(CCCCc3ccc4c(c3)CN(C3CCC(=O)NC3=O)C4=O)CC2)s1 (stereo not shown) [Example 26, 7-(5-(5-(4-(4-(2-(2,6-dioxopiperidin-3-yl)-1-oxoisoindolin-5-yl)butyl)piperazin-1-yl)-1,3,4-thiadiazol-2-yl)-4-(isopropylamino)pyridin-2-yl)pyrrolo[1,2-b]pyridazine-3-carbonitrile] | 94.1 nM | 0.9 nM | 87% | 87% | 94.2 nM | 0.9 nM |
| CC(C)Nc1cc(-c2ccc3cc(C#N)cnn23)ncc1-c1nnc(N2CCN(C3CCN(C(=O)Cc4cccc5c4CN(C4CCC(=O)NC4=O)C5=O)CC3)CC2)s1 (stereo not shown) [Example 76, 7-(5-(5-(4-(1-(2-(2-(2,6-dioxopiperidin-3-yl)-1-oxoisoindolin-4-yl)acetyl)piperidin-4-yl)piperazin-1-yl)-1,3,4-thiadiazol-2-yl)-4-(isopropylamino)pyridin-2-yl)pyrrolo[1,2-b]pyridazine-3-carbonitrile] | 13.1 nM | 0.8 nM | – | 100% | – | – |
| CC(C)Nc1cc(-c2ccc3cc(C#N)cnn23)ncc1-c1nnc(N2CCN(C(=O)CCCCCCCNc3ccc4c(c3)C(=O)N(C3CCC(=O)NC3=O)C4=O)CC2)s1 (stereo not shown) [Example 5, 7-(5-(5-(4-(8-((2-(2,6-dioxopiperidin-3-yl)-1,3-dioxoisoindolin-5-yl)amino)octanoyl)piperazin-1-yl)-1,3,4-thiadiazol-2-yl)-4-(isopropylamino)pyridin-2-yl)pyrrolo[1,2-b]pyridazine-3-carbonitrile] | 71.2 nM | 3.9 nM | 57% | 57% | 84 nM | 3.8 nM |

Now from value to molecule:

| DC50 (IRAK4 [1]; Table 5, multiple runs) | IC50 (IRAK4 [2]; Table 5, multiple runs) | Dmax (IRAK4 [1]; [3]) | Dmax (IRAK4 [1]; [4]) | DC50 (IRAK4 [1]; Table 4) | IC50 (IRAK4 [2]; Table 4) | SMILES |
| --- | --- | --- | --- | --- | --- | --- |
| 81.4 nM | 2.9 nM | 107% | 114% | 89.6 nM | 2.9 nM | CNc1cc(-c2ccc3cc(C#N)cnn23)ncc1-c1nnc([C@H]2CC[C@H](NC(=O)CCCCC(=O)N[C@H](C(=O)N3C[C@H](O)C[C@H]3C(=O)N[C@@H](C)c3ccc(-c4scnc4C)cc3)C(C)(C)C)CC2)s1 [Example 57, N1-((1r,4S)-4-(5-(6-(3-cyanopyrrolo[1,2-b]pyridazin-7-yl)-4-(methylamino)pyridin-3-yl)-1,3,4-thiadiazol-2-yl)cyclohexyl)-N6—((S)-1-((2S,4R)-4-hydroxy-2-(((S)-1-(4-(4-methylthiazol-5-yl)phenyl)ethyl)carbamoyl)pyrrolidin-1-yl)-3,3-dimethyl-1-oxobutan-2-yl)adipamide] |
| 57 nM | 0.7 nM | – | 85% | – | – | CNc1cc(-c2ccc3cc(C#N)cnn23)ncc1-c1nnc(N2CC3(CCN(C(=O)COc4cc(-c5scnc5C)ccc4CNC(=O)[C@@H]4C[C@@H](O)CN4C(=O)[C@@H](NC(=O)C4(F)CC4)C(C)(C)C)CC3)C2)s1 [Example 179, (2S,4R)—N-(2-(2-(2-(5-(6-(3-cyanopyrrolo[1,2-b]pyridazin-7-yl)-4-(methylamino)pyridin-3-yl)-1,3,4-thiadiazol-2-yl)-2,7-diazaspiro[3.5]nonan-7-yl)-2-oxoethoxy)-4-(4-methylthiazol-5-yl)benzyl)-1-((S)-2-(1-fluorocyclopropane-1-carboxamido)-3,3-dimethylbutanoyl)-4-hydroxypyrrolidine-2-carboxamide] |
| 1210 nM | 1.6 nM | – | 74% | – | – | CNc1cc(-c2ccc3cc(C#N)cnn23)ncc1-c1nnc(N2CCC(NC(=O)CCC(=O)N[C@H](C(=O)N3C[C@H](O)C[C@H]3C(=O)N[C@@H](C)c3ccc(-c4scnc4C)cc3)C(C)(C)C)CC2)s1 [Example 158, N1-(1-(5-(6-(3-cyanopyrrolo[1,2-b]pyridazin-7-yl)-4-(methylamino)pyridin-3-yl)-1,3,4-thiadiazol-2-yl)piperidin-4-yl)-N4—((S)-1-((2S,4R)-4-hydroxy-2-(((S)-1-(4-(4-methylthiazol-5-yl)phenyl)ethyl)carbamoyl)pyrrolidin-1-yl)-3,3-dimethyl-1-oxobutan-2-yl)succinamide] |
| 73.7 nM | 5.3 nM | 115% | 118% | 72.8 nM | 5.26 nM | CNc1cc(-c2ccc3cc(C#N)cnn23)ncc1-c1nnc([C@H]2CC[C@H](NC(=O)CCOCCOc3cc(-c4scnc4C)ccc3CNC(=O)[C@@H]3C[C@@H](O)CN3C(=O)[C@@H](NC(=O)C3(F)CC3)C(C)(C)C)CC2)s1 [Example 58, (2S,4R)—N-(2-(2-(3-(((1r,4r)-4-(5-(6-(3-cyanopyrrolo[1,2-b]pyridazin-7-yl)-4-(methylamino)pyridin-3-yl)-1,3,4-thiadiazol-2-yl)cyclohexyl)amino)-3-oxopropoxy)ethoxy)-4-(4-methylthiazol-5-yl)benzyl)-1-((S)-2-(1-fluorocyclopropane-1-carboxamido)-3,3-dimethylbutanoyl)-4-hydroxypyrrolidine-2-carboxamide] |
| > 9980 nM | 1.1 nM | – | – | – | – | CNc1cc(-c2ccc3cc(C#N)cnn23)ncc1-c1nnc(N2CCCC3(CN(Cc4ccc5c(c4)C(=O)N(C4CCC(=O)NC4=O)C5=O)C3)C2)s1 (stereo not shown) [Example 122, 7-(5-(5-(2-((2-(2,6-dioxopiperidin-3-yl)-1,3-dioxoisoindolin-5-yl)methyl)-2,6-diazaspiro[3.5]nonan-6-yl)-1,3,4-thiadiazol-2-yl)-4-(methylamino)pyridin-2-yl)pyrrolo[1,2-b]pyridazine-3-carbonitrile] |
| 42.8 nM | 0.7 nM | – | 113% | – | – | CNc1cc(-c2ccc3cc(C#N)cnn23)ncc1-c1nnc(N2CC3(CCN(C(=O)C[C@H](NC(=O)[C@@H]4C[C@@H](O)CN4C(=O)[C@@H](NC(=O)C4(F)CC4)C(C)(C)C)c4ccc(-c5scnc5C)cc4)CC3)C2)s1 [Example 178] |
